Toxic doses and inconclusive results are not listed. Cut-off read from the data, not from the text of the source: active = T/C of 150% or more; inactive = T/C below 125%.
Test system: L1210 leukemia ip in BDF1 mice, survival T/C
Assay: NCI In Vivo Anticancer Drug Screen. Data for tumor model L1210 Leukemia (intraperitoneal) in B6D2F1 (BDF1) mice
Details: endpoint: mean survival time, higher = longer survival
Outline: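 Mice bearing the transplanted tumor received compound or vehicle. Survival of the treated group was divided by that of the vehicle-treated control group to give the ratio.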

[1] = dose: 100.0 mg/kg/injection, schedule: Q01DX009 (ip), vehicle: saline with Tween-80
[2] = dose: 200.0 mg/kg/injection, schedule: Q01DX009 (ip), vehicle: saline with Tween-80
[3] = dose: 400.0 mg/kg/injection, schedule: Q01DX009 (ip), vehicle: saline with Tween-80
[4] = dose: 50.0 mg/kg/injection, schedule: Q01DX001 (ip), vehicle: saline
[5] = dose: 100.0 mg/kg/injection, schedule: Q01DX001 (ip), vehicle: saline
[6] = dose: 200.0 mg/kg/injection, schedule: Q01DX001 (ip), vehicle: saline
[7] = dose: 100.0 mg/kg/injection, schedule: Q01DX009 (ip), vehicle: Klucel (hydroxypropylcellulose) (HPC)
[8] = dose: 100.0 mg/kg/injection, schedule: Q04DX003 (ip), vehicle: Klucel (hydroxypropylcellulose) (HPC)
[9] = dose: 200.0 mg/kg/injection, schedule: Q04DX003 (ip), vehicle: Klucel (hydroxypropylcellulose) (HPC)
[10] = dose: 400.0 mg/kg/injection, schedule: Q04DX003 (ip), vehicle: Klucel (hydroxypropylcellulose) (HPC)
[11] = dose: 25.0 mg/kg/injection, schedule: Q04DX003 (ip), vehicle: saline
[12] = dose: 50.0 mg/kg/injection, schedule: Q01DX001 (ip), vehicle: carboxymethylcellulose (CMC)
[13] = dose: 100.0 mg/kg/injection, schedule: Q01DX001 (ip), vehicle: carboxymethylcellulose (CMC)
[14] = dose: 200.0 mg/kg/injection, schedule: Q01DX001 (ip), vehicle: carboxymethylcellulose (CMC)
[15] = dose: 400.0 mg/kg/injection, schedule: Q01DX001 (ip), vehicle: carboxymethylcellulose (CMC)

Measured: T/C

CCCC(CCCC(=O)O)C(=O)c1ccccc1 (stereo unspecified)
inactive: [1] 101 % of control | [2] 104 % of control | [3] 100 % of control

CC(CN(C)C)C(O)(c1ccccc1)c1ccccc1 (stereo unspecified)
inactive: [4] 98 % of control | [5] 98 % of control | [6] 104 % of control

COc1cccc2cc([N+](=O)[O-])oc12
inactive: dose: 25.0 mg/kg/injection, schedule: Q01DX009 (ip), vehicle: Klucel (hydroxypropylcellulose) (HPC) 98 % of control | dose: 50.0 mg/kg/injection, schedule: Q01DX009 (ip), vehicle: Klucel (hydroxypropylcellulose) (HPC) 93 % of control | dose: 50.0 mg/kg/injection, schedule: Q04DX002 (ip), vehicle: Klucel (hydroxypropylcellulose) (HPC) 105 % of control | [7] 101 % of control | dose: 100.0 mg/kg/injection, schedule: Q04DX002 (ip), vehicle: Klucel (hydroxypropylcellulose) (HPC) 94 % of control | dose: 200.0 mg/kg/injection, schedule: Q04DX002 (ip), vehicle: Klucel (hydroxypropylcellulose) (HPC) 101 % of control

CCCCCCCC[Si](Br)(CCCCCCCC)CCCCCCCC
inactive: dose: 75.0 mg/kg/injection, schedule: Q01DX001 (ip), vehicle: acetone 98 % of control | dose: 150.0 mg/kg/injection, schedule: Q01DX001 (ip), vehicle: acetone 93 % of control | dose: 300.0 mg/kg/injection, schedule: Q01DX001 (ip), vehicle: acetone 96 % of control

CC1(C)N=C(N)N=C(N)N1c1ccc(OCC(=O)Nc2ccccc2)c(Cl)c1
inactive: [7] 102 % of control | [8] 97 % of control | dose: 200.0 mg/kg/injection, schedule: Q01DX009 (ip), vehicle: Klucel (hydroxypropylcellulose) (HPC) 94 % of control | [9] 90 % of control | dose: 400.0 mg/kg/injection, schedule: Q01DX009 (ip), vehicle: Klucel (hydroxypropylcellulose) (HPC) 93 % of control | [10] 92 % of control

O=c1cc(NCc2cccc3ccccc23)[nH]c(=O)[nH]1
inactive: dose: 37.5 mg/kg/injection, schedule: Q01DX001 (ip), vehicle: Klucel (hydroxypropylcellulose) (HPC) 97 % of control | dose: 75.0 mg/kg/injection, schedule: Q01DX001 (ip), vehicle: Klucel (hydroxypropylcellulose) (HPC) 95 % of control | dose: 150.0 mg/kg/injection, schedule: Q01DX001 (ip), vehicle: Klucel (hydroxypropylcellulose) (HPC) 93 % of control

CCCCCCCCCCCCC(CCCCCCCCCCCC)C1CCCCC1
inactive: [5] 102 % of control | [6] 104 % of control | dose: 400.0 mg/kg/injection, schedule: Q01DX001 (ip), vehicle: saline 95 % of control

FCCBr
inactive: dose: 3.12 mg/kg/injection, schedule: Q04DX003 (ip), vehicle: saline 104 % of control | dose: 6.25 mg/kg/injection, schedule: Q04DX003 (ip), vehicle: saline 104 % of control | dose: 12.5 mg/kg/injection, schedule: Q01DX009 (ip), vehicle: water 100 % of control | dose: 12.5 mg/kg/injection, schedule: Q04DX003 (ip), vehicle: saline 107 % of control | [11] 112 % of control | dose: 25.0 mg/kg/injection, schedule: Q04DX003 (ip), vehicle: water 97 % of control | dose: 100.0 mg/kg/injection, schedule: Q04DX003 (ip), vehicle: water 112 % of control

O=S(=O)(Nc1ccc2ccccc2c1)c1cccc2cccnc12
inactive: [8] 98 % of control | [9] 93 % of control | [10] 95 % of control

CN(C)Cc1ccc(Cl)cc1C(O)(c1ccccc1)c1ccccc1
inactive: [12] 101 % of control | [13] 104 % of control | [14] 93 % of control | [15] 93 % of control

O=P(O)(c1cccc(Cl)c1)c1cccc(Cl)c1
inactive: dose: 100.0 mg/kg/injection, schedule: Q01DX001 (ip), vehicle: acetone 91 % of control | dose: 100.0 mg/kg/injection, schedule: Q04DX003 (ip), vehicle: acetone 97 % of control | dose: 200.0 mg/kg/injection, schedule: Q01DX001 (ip), vehicle: acetone 96 % of control | dose: 200.0 mg/kg/injection, schedule: Q04DX003 (ip), vehicle: acetone 107 % of control | dose: 400.0 mg/kg/injection, schedule: Q01DX001 (ip), vehicle: acetone 91 % of control | dose: 400.0 mg/kg/injection, schedule: Q04DX003 (ip), vehicle: acetone 97 % of control

CC1CC([P+](c2ccccc2)(c2ccccc2)c2ccccc2)=NN1 (stereo unspecified)
inactive: [11] 120 % of control | dose: 50.0 mg/kg/injection, schedule: Q04DX003 (ip), vehicle: saline 113 % of control

CN(C)OC(=O)Nc1cccc2ccccc12
inactive: dose: 100.0 mg/kg/injection, schedule: Q04DX002 (ip), vehicle: DMSO 96 % of control | dose: 200.0 mg/kg/injection, schedule: Q04DX002 (ip), vehicle: DMSO 108 % of control | dose: 400.0 mg/kg/injection, schedule: Q04DX002 (ip), vehicle: DMSO 101 % of control

C=C(C1CC1)C1(CC)C(=O)NC(=S)NC1=O
inactive: dose: 75.0 mg/kg/injection, schedule: Q01DX001 (ip), vehicle: other 102 % of control | dose: 150.0 mg/kg/injection, schedule: Q01DX001 (ip), vehicle: other 113 % of control | dose: 300.0 mg/kg/injection, schedule: Q01DX001 (ip), vehicle: other 94 % of control

Cc1c(/C=N/N=c2/[nH][nH]/c(=N/N=C/c3c(C)n(C)n(-c4ccccc4)c3=O)c3ccccc23)c(=O)n(-c2ccccc2)n1C
inactive: [4] 93 % of control | [5] 106 % of control | [6] 114 % of control

O=[N+]([O-])c1cc(O)cc(F)c1
inactive: [13] 100 % of control

C=C(C)CSc1ncnc2nc[nH]c12
inactive: dose: 52.0 mg/kg/injection, schedule: Q01DX Z (ip), vehicle: other 112 % of control | dose: 80.0 mg/kg/injection, schedule: Q01DX Z (ip), vehicle: other 112 % of control | dose: 120.0 mg/kg/injection, schedule: Q01DX Z (ip), vehicle: other 124 % of control

COc1ccc(/C(C)=C\C(=O)O)cc1
inactive: [1] 96 % of control | dose: 100.0 mg/kg/injection, schedule: Q04DX003 (ip), vehicle: saline with Tween-80 107 % of control | [2] 102 % of control | dose: 200.0 mg/kg/injection, schedule: Q04DX003 (ip), vehicle: saline with Tween-80 113 % of control | [3] 101 % of control | dose: 400.0 mg/kg/injection, schedule: Q04DX003 (ip), vehicle: saline with Tween-80 115 % of control

Cl[Si](c1ccccc1)(c1ccccc1)c1ccc([Si](Cl)(c2ccccc2)c2ccccc2)cc1
inactive: dose: 100.0 mg/kg/injection, schedule: Q04DX002 (ip), vehicle: saline with Tween-80 87 % of control | dose: 200.0 mg/kg/injection, schedule: Q04DX002 (ip), vehicle: saline with Tween-80 92 % of control | dose: 400.0 mg/kg/injection, schedule: Q04DX002 (ip), vehicle: saline with Tween-80 96 % of control

COc1cc2cc3c4cc(OC)c(OC)cc4cc[n+]3c(/C=C/c3ccccc3)c2cc1OC
inactive: dose: 100.0 mg/kg/injection, schedule: Q04DX003 (ip), vehicle: carboxymethylcellulose (CMC) 102 % of control | dose: 200.0 mg/kg/injection, schedule: Q04DX003 (ip), vehicle: carboxymethylcellulose (CMC) 110 % of control | dose: 400.0 mg/kg/injection, schedule: Q04DX003 (ip), vehicle: carboxymethylcellulose (CMC) 100 % of control

C=CC(C)C1C(C)C(Cl)CC(Cl)C1OC(=O)c1ccccc1 (stereo unspecified)
inactive: [12] 100 % of control | [13] 112 % of control | [14] 94 % of control | [15] 96 % of control

COc1ccc(-n2c(=O)c(N=Nc3ccc(Br)cc3)c(O)n(-c3ccc(I)cc3)c2=S)cc1
inactive: dose: 50.0 mg/kg/injection, schedule: Q01DX001 (ip), vehicle: Klucel (hydroxypropylcellulose) (HPC) 103 % of control | dose: 100.0 mg/kg/injection, schedule: Q01DX001 (ip), vehicle: Klucel (hydroxypropylcellulose) (HPC) 100 % of control | dose: 200.0 mg/kg/injection, schedule: Q01DX001 (ip), vehicle: Klucel (hydroxypropylcellulose) (HPC) 91 % of control

Reference: PubChem BioAssay AID248 (DTP/NCI, 2004)
